# Results: patent US20020115640A1, “Farnesyltransferase inhibitors” (priority 2000, published 2002)
# Molecular target: T1, farnesyltransferase (Rattus norvegicus, UniProt Q02293+Q04631)
# T1 construct: The enzyme can be purified according to Cell, 62: 81-88 (1990), utilizing steps one, two, and three; from tissue; host or cells: rat brain
# Test: Inhibition of farnesyltransferase (3H-farnesyldiphosphate / H-Ras filter assay)
# Assay type: biochemical
# Settings: test compound at 10^−8 M; 3H-farnesyldiphosphate 0.6 μM, H-Ras 5.0 μM, 37° C., 30 minutes
# Excerpt: The ability of the compounds of the present invention to inhibit farnesyltransferase can be measured according to the method described in J. Biol. Chem., 266: 14603 (1991) or J. Biol. Chem., 270:660-664 (1995). Procedures for determination of the inhibition of farnesylation of the oncogene protein Ras are described in J. Biol. Chem., 266:15575-15578 (1991) and U.S. Pat. No. 5,245,061. Inhibition of rat brain farnesyltransferase can also be measured in vitro using an Amersham Life Science commercial scintillation proximity assay kit and substituting a biotin-K Ras B fragment (0.1 μM final concentration) for the biotin-lamin substrate provided by Amersham. The enzyme can be purified according to Cell, 62: 81-88 (1990), utilizing steps one, two, and three. […] The percent inhibition of the farnesylation caused by the compounds of the present invention (at 10^−6 M) compared to an uninhibited control sample can be evaluated in the same Amersham test system.
# The mixture was brought to 37° C., treated with enzyme, incubated for 30 minutes, treated with 1 M HCl/ethanol (1 mL) to stop the reaction, stirred for 15 minutes at room temperature, diluted with ethanol (2 mL), filtered through a 2.5 cm glass microfiber filter (Whatman) with ethanol rinses (4×2 mL). The glass transferred to a scintillation vial and treated with scintillation fluid (5 mL). The radioisotope retained on the glass fiber filter was counted and reflected the activity of the enzyme.
# T1 sequence (Q02293 whole entry, one chain of several): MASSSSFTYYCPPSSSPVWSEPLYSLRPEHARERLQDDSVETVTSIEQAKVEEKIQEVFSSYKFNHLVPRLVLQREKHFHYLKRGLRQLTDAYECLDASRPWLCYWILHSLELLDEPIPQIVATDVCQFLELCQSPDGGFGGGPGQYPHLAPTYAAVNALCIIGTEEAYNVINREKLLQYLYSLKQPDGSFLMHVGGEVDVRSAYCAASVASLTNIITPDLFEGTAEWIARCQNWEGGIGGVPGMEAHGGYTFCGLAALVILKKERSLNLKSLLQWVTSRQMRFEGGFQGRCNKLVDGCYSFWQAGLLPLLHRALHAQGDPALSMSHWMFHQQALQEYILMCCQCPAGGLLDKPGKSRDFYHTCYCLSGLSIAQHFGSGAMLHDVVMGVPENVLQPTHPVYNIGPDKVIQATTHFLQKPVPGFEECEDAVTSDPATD
row,Structure (SMILES),inhibition at 0.01 µM [%]
1,"Cn1cncc1C(O)(COc1ccc(C#N)cc1-c1cccc(OC(F)(F)F)c1)c1ccc(C#N)cc1 (centres unmarked) [Example 69, 6-(2-(4-cyanophenyl)-2-hydroxy-2-(1-methyl-1H-imidazol-5-yl)ethoxy)-3′-(trifluoromethoxy)-1,1′-biphenyl-3-carbonitrile]",95
2,"Cn1cncc1C(F)(COc1ccc(C#N)cc1-c1cccc(OC(F)(F)F)c1)c1ccc(C#N)cc1 (centres unmarked) [Example 70, 6-(2-(4-cyanophenyl)-2-fluoro-2-(1-methyl-1H-imidazol-5-yl)ethoxy)-3′-(trifluoromethoxy)-1,1′-biphenyl-3-carbonitrile]",94
3,"Cn1cncc1C(O)(COc1ccc(C#N)cc1-c1ccc(Cl)c(Cl)c1)c1ccc(C#N)cc1 (centres unmarked) [Example 71, 3′,4′-dichloro-6-(2-(4-cyanophenyl)-2-hydroxy-2-(1-methyl-1H-imidazol-5-yl)ethoxy)-1,1′-biphenyl-3-carbonitrile]",97
4,"Cn1cncc1C(F)(COc1ccc(C#N)cc1-c1ccc(Cl)c(Cl)c1)c1ccc(C#N)cc1 (centres unmarked) [Example 72, 3′,4′-dichloro-6-(2-(4-cyanophenyl)-2-fluoro-2-(1-methyl-1H-imidazol-5-yl)ethoxy)-1,1′-biphenyl-3-carbonitrile]",94
5,"Cn1cncc1C(O)(COc1ccc(C#N)cc1-c1cc(Cl)cc(Cl)c1)c1ccc(C#N)cc1 (centres unmarked) [Example 73, 3′,5′-dichloro-6-(2-(4-cyanophenyl)-2-hydroxy-2-(1-methyl-1H-imidazol-5-yl)ethoxy)-1,1′-biphenyl-3-carbonitrile]",96
6,"Cn1cncc1C(F)(COc1ccc(C#N)cc1-c1cc(Cl)cc(Cl)c1)c1ccc(C#N)cc1 (centres unmarked) [Example 74, 3′,5′-dichloro-6-(2-(4-cyanophenyl)-2-fluoro-2-(1-methyl-1H-imidazol-5-yl)ethoxy)-1,1′-biphenyl-3-carbonitrile]",95
7,"Cn1cncc1C(O)(COc1ccc(C#N)cc1-c1cccc(F)c1)c1ccc(C#N)cc1 (centres unmarked) [Example 75, 6-(2-(4-cyanophenyl)-2-hydroxy-2-(1-methyl-1H-imidazol-5-yl)ethoxy)-3′-fluoro-1,1′-biphenyl-3-carbonitrile]",96
8,"Cn1cncc1C(F)(COc1ccc(C#N)cc1-c1cccc(F)c1)c1ccc(C#N)cc1 (centres unmarked) [Example 76, 6-(2-(4-cyanophenyl)-2-fluoro-2-(1-methyl-1H-imidazol-5-yl)ethoxy)-3′-fluoro-1,1′-biphenyl-3-carbonitrile]",95
9,"Cn1cncc1C(O)(COc1ccc(C#N)cc1-c1cccc(Cl)c1)c1ccc(C#N)cc1 (centres unmarked) [Example 77, 3′-chloro-6-(2-(4-cyanophenyl)-2-hydroxy-2-(1-methyl-1H-imidazol-5-yl)ethoxy)-1,1′-biphenyl-3-carbonitrile]",98
10,"Cn1cncc1C(F)(COc1ccc(C#N)cc1-c1cccc(Cl)c1)c1ccc(C#N)cc1 (centres unmarked) [Example 78, 3′-chloro-6-(2-(4-cyanophenyl)-2-fluoro-2-(1-methyl-1H-imidazol-5-yl)ethoxy)-1,1′-biphenyl-3-carbonitrile]",97
11,"Cn1cncc1C(O)(COc1ccc(C#N)cc1-c1ccc2c(c1)OC(F)(F)O2)c1ccc(C#N)cc1 (centres unmarked) [Example 79, 4-(2-(4-cyanophenyl)-2-hydroxy-2-(1-methyl-1H-imidazol-5-yl)ethoxy)-3-(2,2-difluoro-1,3-benzodioxol-5-yl)benzonitrile]",96
12,"Cn1cncc1C(F)(COc1ccc(C#N)cc1-c1ccc2c(c1)OC(F)(F)O2)c1ccc(C#N)cc1 (centres unmarked) [Example 80, 4-(2-(4-cyanophenyl)-2-fluoro-2-(1-methyl-1H-imidazol-5-yl)ethoxy)-3-(2,2-difluoro-1,3-benzodioxol-5-yl)benzonitrile]",90
13,"Cn1cncc1C(O)(COc1ccc(C#N)cc1-c1cccc2ccccc12)c1ccc(C#N)cc1 (centres unmarked) [Example 81, 4-(2-(4-cyanophenyl)-2-hydroxy-2-(1-methyl-1H-imidazol-5-yl)ethoxy)-3-(1-naphthyl)benzonitrile]",90
14,"N#Cc1ccc(C(O)(COc2ccc(C#N)cc2-c2ccc(OC(F)(F)F)cc2)c2cncs2)cc1 (centres unmarked) [Example 82, 6-(2-(4-cyanophenyl)-2-hydroxy-2-(1,3-thiazol-5-yl)ethoxy)-4′-(trifluoromethoxy)-1,1′-biphenyl-3-carbonitrile]",15
15,"Cn1cncc1C(N)(COc1ccc(C#N)cc1-c1ccc(OC(F)(F)F)cc1)c1ccc(C#N)cc1 (centres unmarked) [Example 83, 6-(2-amino-2-(4-cyanophenyl)-2-(1-methyl-1H-imidazol-5-yl)ethoxy)-4′-(trifluoromethoxy)-1,1′-biphenyl-3-carbonitrile]",96
16,"COc1cccc(-c2cc(C#N)ccc2N(C)CC(O)(c2ccc(C#N)cc2)c2cncn2C)c1 (centres unmarked) [Example 84, 6-((2-(4-cyanophenyl)-2-hydroxy-2-(1-methyl-1H-imidazol-5-yl)ethyl)(methyl)amino)-3′-methoxy-1,1′-biphenyl-3-carbonitrile]",92
17,"COc1cccc(-c2cc(C#N)ccc2N(C)CC(F)(c2ccc(C#N)cc2)c2cncn2C)c1 (centres unmarked) [Example 85, 6-((2-(4-cyanophenyl)-2-fluoro-2-(1-methyl-1H-imidazol-5-yl)ethyl)(methyl)amino)-3′-methoxy-1,1′-biphenyl-3-carbonitrile]",65
18,"CN(CC(O)(c1ccc(C#N)cc1)c1cncn1C)c1ccc(C#N)cc1-c1ccc(OC(F)(F)F)cc1 (centres unmarked) [Example 86, 6-((2-(4-cyanophenyl)-2-hydroxy-2-(1-methyl-1H-imidazol-5-yl)ethyl)(methyl)amino)-4′-(trifluoromethoxy)-1,1′-biphenyl-3-carbonitrile]",94
19,"Cc1ccnc(NC(=O)c2cc(C#N)ccc2COC(c2ccc(C#N)cc2)c2cncn2C)c1 (centres unmarked) [Example 87, 5-cyano-2-(((4-cyanophenyl)(1-methyl-1H-imidazol-5-yl)methoxy)methyl)-N-(4-methylpyridin-2-yl)benzamide]",91
20,"Cn1cncc1C(OCc1ccc(C#N)cc1C(=O)Nc1cccc(Cl)c1)c1ccc(C#N)cc1 (centres unmarked) [Example 88, N-(3-chlorophenyl)-5-cyano-2-(((4-cyanophenyl)(1-methyl-1H-imidazol-5-yl)methoxy)methyl)benzamide]",90
21,"CCCn1cc(-c2cc(C#N)ccc2COC(c2ccc(C#N)cc2)c2cncn2C)ccc1=O (centres unmarked) [Example 91, 4-(((4-cyanophenyl)(1-methyl-1H-imidazol-5-yl)methoxy)methyl)-3-(6-oxo-1-propyl-1,6-dihydropyridin-3-yl)benzonitrile]",77
22,"CCCOc1ccc(-c2cc(C#N)ccc2COC(c2ccc(C#N)cc2)c2cncn2C)cn1 (centres unmarked) [Example 92, 4-(((4-cyanophenyl)(1-methyl-1H-imidazol-5-yl)methoxy)methyl)-3-(6-propoxypyridin-3-yl)benzonitrile]",94

# Same assay, conditions: test compound at 10^−9 M (stated in the cell); 3H-farnesyldiphosphate 0.6 μM, H-Ras 5.0 μM, 37° C., 30 minutes
row,Structure (SMILES),inhibition at 0.001 µM [%]
1,"Cn1cncc1C(OCc1ccc(C#N)nc1-c1ccc2c(c1)OC(F)(F)O2)c1ccc(C#N)cc1 (centres unmarked) [Example 89, 5-(((4-cyanophenyl)(1-methyl-1H-imidazol-5-yl)methoxy)methyl)-6-(2,2-difluoro-1,3-benzodioxol-5-yl)pyridine-2-carbonitrile]",75
